Assay results as given in the supplement of paper PMC10307832.

Tests used:
Experiment in all cases: relative viability (nuclei count vs DMSO), 5 days (fraction); higher = more cells survive
R406 + Alpelisib = compound: COc1cc(Nc2ncc(F)c(Nc3ccc4c(n3)NC(=O)C(C)(C)O4)n2)cc(OC)c1OC [R406] + Cc1nc(NC(=O)N2CCC[C@H]2C(N)=O)sc1-c1ccnc(C(C)(C)C(F)(F)F)c1 [Alpelisib] (partner 2 µM)
How it was run: (§1)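 Relative viability divides the nuclei count in treated wells by that in vehicle wells. Lung cancer cell lines were seeded in 1536-well plates, dosed by pin tool the next day, and fixed and stained after 5 days in one step with final 0.05% Triton X-100, 1% formaldehyde and 1 ug/ml Hoechst. Dosing was a single drug or a fixed anchor-drug dose plus five library-drug doses (not always all listed) in √10 steps, and values are medians of duplicate plates imaged at 4×.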

Daporinad + Phenformin = compound: O=C(/C=C/c1cccnc1)NCCCCC1CCN(C(=O)c2ccccc2)CC1 [Daporinad] + N=C(N)NC(=N)NCCc1ccccc1 [Phenformin] (partner 250 µM)
How it was run: as §1

Daporinad + Foretinib = compound: O=C(/C=C/c1cccnc1)NCCCCC1CCN(C(=O)c2ccccc2)CC1 [Daporinad] + COc1cc2c(Oc3ccc(NC(=O)C4(C(=O)Nc5ccc(F)cc5)CC4)cc3F)ccnc2cc1OCCCN1CCOCC1 [Foretinib] (partner 0.25 µM)
How it was run: as §1

R406 + Dasatinib = compound: COc1cc(Nc2ncc(F)c(Nc3ccc4c(n3)NC(=O)C(C)(C)O4)n2)cc(OC)c1OC [R406] + Cc1nc(Nc2ncc(C(=O)Nc3c(C)cccc3Cl)s2)cc(N2CCN(CCO)CC2)n1 [Dasatinib] (partner 0.075 µM)
How it was run: as §1

| Cell Line | relative viability (R406 + Alpelisib; first compound 0.08 µM) | relative viability (R406 + Alpelisib; first compound 0.253 µM) | relative viability (R406 + Alpelisib; first compound 0.8 µM) | relative viability (R406 + Alpelisib; first compound 2.53 µM) | relative viability (R406 + Alpelisib; first compound 8 µM) | relative viability (Daporinad + Phenformin; first compound 0.0005 µM) | relative viability (Daporinad + Phenformin; first compound 0.001581 µM) | relative viability (Daporinad + Phenformin; first compound 0.005 µM) | relative viability (Daporinad + Phenformin; first compound 0.01581 µM) | relative viability (Daporinad + Foretinib; first compound 0.0005 µM) | relative viability (Daporinad + Foretinib; first compound 0.001581 µM) | relative viability (Daporinad + Foretinib; first compound 0.005 µM) | relative viability (Daporinad + Foretinib; first compound 0.01581 µM) | relative viability (R406 + Dasatinib; first compound 0.08 µM) | relative viability (R406 + Dasatinib; first compound 0.253 µM) | relative viability (R406 + Dasatinib; first compound 0.8 µM) | relative viability (R406 + Dasatinib; first compound 2.53 µM) | relative viability (R406 + Dasatinib; first compound 8 µM) |
| --- | --- | --- | --- | --- | --- | --- | --- | --- | --- | --- | --- | --- | --- | --- | --- | --- | --- | --- |
| HCC-827 | 1.04 | 0.903 | 1.03 | 0.827 | 0.282 | 0.442 | 0.478 | 0.421 | 0.461 | 0.984 | 1.14 | 1.1 | 1.11 | 0.309 | 0.252 | 0.325 | 0.312 | 0.229 |
| HOP-62 | 0.779 | 1.04 | 0.886 | 1.09 | 0.913 | 0.493 | 0.746 | 0.765 | 0.526 | 0.838 | 1.01 | 1.1 | 0.639 | 0.618 | 0.73 | 0.797 | 0.729 | 0.391 |
| IA-LM | 0.888 | 0.999 | 1 | 0.962 | 0.81 | – | – | – | – | 1.06 | 1.12 | 1.29 | 1.26 | – | – | – | – | – |
| LC-2-ad | 0.769 | 0.802 | 0.909 | 0.329 | 0.0848 | 0.568 | 0.707 | 0.605 | 0.677 | 1.05 | 0.97 | 0.969 | 1.06 | 0.572 | 0.649 | 0.62 | 0.282 | 0.203 |
| LCLC-97TM1 | 0.209 | 0.265 | 0.267 | 0.202 | 0.256 | 0.414 | 0.454 | 0.485 | 0.458 | 0.832 | 0.929 | 1.08 | 1.03 | 0.83 | 0.863 | 0.793 | 0.722 | 0.602 |
| LCLC-103H | 0.906 | 1.1 | 0.901 | 0.901 | 0.741 | 0.351 | 0.341 | 0.358 | 0.327 | 0.846 | 0.834 | 0.884 | 0.868 | 0.491 | 0.538 | 0.539 | 0.393 | 0.26 |
| LK-2 | 0.98 | 1.05 | 1.02 | 0.803 | 0.566 | 0.651 | 0.305 | 0.314 | 0.159 | 1.08 | 1.54 | 1.29 | 0.308 | 0.26 | 0.303 | 0.285 | 0.346 | 0.201 |
| LOU-NH91 | 0.726 | 0.718 | 0.789 | 0.51 | 0.449 | 0.645 | 0.727 | 0.798 | 1.02 | 0.95 | 0.991 | 1.11 | 1.22 | 0.593 | 0.617 | 0.545 | 0.354 | 0.334 |
| LU99A | 0.462 | 0.468 | 0.617 | – | 0.193 | 0.833 | 0.981 | 0.946 | 0.93 | 0.774 | 0.807 | 0.796 | 0.772 | 0.553 | 0.607 | 0.548 | 0.377 | 0.271 |
